Laboratory results taken from patent publication US20100317524A1, “Sulfonylureas” (Bayer CropScience AG, priority 2005, published 2010).

Tests used:
[1] = tested on: weed plants such as Sinapis alba, Chrysanthemum segetum, Avena sativa, Stellaria media, Echinochloa crus-galli, Lolium multiflorum, Setaria viridis, Abutilon …; assay: Pre-emergence effect on weeds (greenhouse pot test, visual scoring); type: in vivo; conditions: applied pre-emergence at a rate of 0.3 kg or less of active substance per hectare; visual scoring after 3 to 4 weeks vs untreated controls
Excerpt: Seeds or sections of rhizome from monocot and dicot weed plants were laid out in sandy loam soil in cardboard pots, and covered with soil. The compounds of the invention, formulated as wettable powders or emulsifiable concentrates, were then applied, in the form of aqueous suspensions or emulsions, at various dosages, onto the surface of the covering earth, at an application rate of 600 to 800 l of water per hectare (converted). Following the treatment, the pots were placed in a greenhouse and maintained under good growth conditions for the weeds. Visual scoring of the plant damage or emergence damage was made when the test plants had emerged, after a test time of 3 to 4 weeks, in comparison to untreated controls.

[2] = tested on: weed plants such as Sinapis alba, Echinochloa crus-galli, Lolium multiflorum, Chrysanthemum segetum, Setaria viridis, Abutilon theophrasti, Amaranthus …; assay: Post-emergence effect on weeds (greenhouse pot test, visual scoring); type: in vivo; conditions: applied post-emergence (three-leaf stage) at a rate of 0.3 kg or less of active substance per hectare; visual scoring after about 3 to 4 weeks vs untreated controls
Experimental: Seeds or sections of rhizome from monocot and dicot broadleaf weeds were laid out in sandy loam soil in plastic pots, covered with earth, and cultivated in a greenhouse under good growth conditions. Three weeks after sowing, the test plants were treated at the three-leaf stage. The compounds of the invention, formulated as wettable powders or as emulsion concentrates, were sprayed in different dosages onto the green parts of the plants, at an application rate of 600 to 800 l of water per hectare (converted). After the test plants had stood in the greenhouse under optimum growth conditions for a period of about 3 to 4 weeks, the effect of the products was scored visually in comparison to untreated controls.

Structure (SMILES): COc1nc(NC(=O)NS(=O)(=O)c2c(I)cccc2C(F)(F)F)nc(OC)n1 [Compound 1.104]
- herbicidal action against weed plants, pre-emergence [1]: very good herbicidal action
- herbicidal action against weed plants, post-emergence [2]: very good herbicidal action

Structure (SMILES): Cc1cc(C)nc(NC(=O)NS(=O)(=O)c2c(I)cccc2OS(C)(=O)=O)n1 [Compound 1.471]
- herbicidal action against weed plants, pre-emergence [1]: very good herbicidal action
- herbicidal action against weed plants, post-emergence [2]: very good herbicidal action

Structure (SMILES): CCC(C)Oc1cccc(I)c1S(=O)(=O)NC(=O)Nc1nc(OC)nc(OC)n1 (stereo not shown) [Compound 1.560]
- herbicidal action against weed plants, pre-emergence [1]: very good herbicidal action
- herbicidal action against weed plants, post-emergence [2]: very good herbicidal action

Structure (SMILES): COc1cc(Cl)nc(NC(=O)NS(=O)(=O)c2c(C)cccc2I)n1 [Compound 1.021]
- herbicidal action against weed plants, pre-emergence [1]: very good herbicidal action
- herbicidal action against weed plants, post-emergence [2]: very good herbicidal action

Structure (SMILES): COc1cc(Cl)nc(NC(=O)NS(=O)(=O)c2c(I)cccc2OC(F)(F)F)n1 [Compound 1.311]
- herbicidal action against weed plants, pre-emergence [1]: very good herbicidal action
- herbicidal action against weed plants, post-emergence [2]: very good herbicidal action

Structure (SMILES): COc1nc(NC(=O)NS(=O)(=O)c2c(I)cccc2OCC(F)(F)C(F)(F)F)nc(OC)n1 [Compound 1.373]
- herbicidal action against weed plants, pre-emergence [1]: very good herbicidal action
- herbicidal action against weed plants, post-emergence [2]: very good herbicidal action

Structure (SMILES): COc1cc(OC)nc(NC(=O)NS(=O)(=O)c2c(I)cccc2OCC2CC2)n1 [Compound 1.229]
- herbicidal action against weed plants, pre-emergence [1]: very good herbicidal action
- herbicidal action against weed plants, post-emergence [2]: very good herbicidal action

Structure (SMILES): Cc1cc(C)nc(NC(=O)NS(=O)(=O)c2c(I)cccc2OCC(F)F)n1 [Compound 1.353]
- herbicidal action against weed plants, pre-emergence [1]: very good herbicidal action
- herbicidal action against weed plants, post-emergence [2]: very good herbicidal action

Structure (SMILES): COc1cc(OC)nc(NC(=O)NS(=O)(=O)c2c(C)cccc2I)n1 [Compound 1.012]
- herbicidal action against weed plants, pre-emergence [1]: very good herbicidal action
- herbicidal action against weed plants, post-emergence [2]: very good herbicidal action

Structure (SMILES): COc1cc(Cl)nc(NC(=O)NS(=O)(=O)c2c(F)cccc2I)n1 [Compound 1.004]
- herbicidal action against weed plants, pre-emergence [1]: very good herbicidal action
- herbicidal action against weed plants, post-emergence [2]: very good herbicidal action

Structure (SMILES): COc1nc(C)nc(NC(=O)NS(=O)(=O)c2c(F)cccc2I)n1 [Compound 1.002]
- herbicidal action against weed plants, pre-emergence [1]: very good herbicidal action
- herbicidal action against weed plants, post-emergence [2]: very good herbicidal action

Structure (SMILES): COc1ccc(Cl)c(I)c1S(=O)(=O)NC(=O)Nc1nc(C)cc(C)n1 [Compound 1.600]
- herbicidal action against weed plants, pre-emergence [1]: very good herbicidal action
- herbicidal action against weed plants, post-emergence [2]: very good herbicidal action

Structure (SMILES): COc1nc(C)nc(NC(=O)NS(=O)(=O)c2c(I)cccc2OCC2CC2)n1 [Compound 1.233]
- herbicidal action against weed plants, pre-emergence [1]: very good herbicidal action
- herbicidal action against weed plants, post-emergence [2]: very good herbicidal action

Structure (SMILES): COc1nc(C)nc(NC(=O)NS(=O)(=O)c2c(I)cccc2SC)n1 [Compound 1.390]
- herbicidal action against weed plants, pre-emergence [1]: very good herbicidal action
- herbicidal action against weed plants, post-emergence [2]: very good herbicidal action

Structure (SMILES): COc1cc(Cl)nc(NC(=O)NS(=O)(=O)c2c(I)cccc2OC(C)C)n1 [Compound 1.187]
- herbicidal action against weed plants, pre-emergence [1]: very good herbicidal action
- herbicidal action against weed plants, post-emergence [2]: very good herbicidal action

Structure (SMILES): CCOc1cccc(I)c1S(=O)(=O)NC(=O)Nc1nc(OC)nc(OC)n1 [Compound 1.168]
- herbicidal action against weed plants, pre-emergence [1]: very good herbicidal action
- herbicidal action against weed plants, post-emergence [2]: very good herbicidal action

Structure (SMILES): COc1cc(OC)nc(NC(=O)NS(=O)(=O)c2c(I)cccc2SC)n1 [Compound 1.389]
- herbicidal action against weed plants, pre-emergence [1]: very good herbicidal action
- herbicidal action against weed plants, post-emergence [2]: very good herbicidal action

Structure (SMILES): CCOc1cccc(I)c1S(=O)(=O)NC(=O)Nc1nc(OC)cc(OC)n1 [Compound 1.164]
- herbicidal action against weed plants, pre-emergence [1]: very good herbicidal action
- herbicidal action against weed plants, post-emergence [2]: very good herbicidal action

Structure (SMILES): Cc1cc(C)nc(NC(=O)NS(=O)(=O)c2c(I)cccc2OCC2CC2)n1 [Compound 1.237]
- herbicidal action against weed plants, pre-emergence [1]: very good herbicidal action
- herbicidal action against weed plants, post-emergence [2]: very good herbicidal action

Structure (SMILES): COc1nc(NC(=O)NS(=O)(=O)c2c(C)cccc2I)nc(OC)n1 [Compound 1.025]
- herbicidal action against weed plants, pre-emergence [1]: very good herbicidal action
- herbicidal action against weed plants, post-emergence [2]: very good herbicidal action

Structure (SMILES): COc1cc(Cl)nc(NC(=O)NS(=O)(=O)c2c(I)cccc2OCC(F)(F)F)n1 [Compound 1.344]
- herbicidal action against weed plants, pre-emergence [1]: very good herbicidal action
- herbicidal action against weed plants, post-emergence [2]: very good herbicidal action

Structure (SMILES): CCCCOc1cccc(I)c1S(=O)(=O)NC(=O)Nc1nc(OC)cc(OC)n1 [Compound 1.192]
- herbicidal action against weed plants, pre-emergence [1]: very good herbicidal action
- herbicidal action against weed plants, post-emergence [2]: very good herbicidal action

Structure (SMILES): COc1nc(C)nc(NC(=O)NS(=O)(=O)c2c(I)cccc2OC)n1 [Compound 1.150]
- herbicidal action against weed plants, pre-emergence [1]: very good herbicidal action
- herbicidal action against weed plants, post-emergence [2]: very good herbicidal action

Structure (SMILES): Cc1cc(C)nc(NC(=O)NS(=O)(=O)c2c(I)cccc2C(F)(F)F)n1 [Compound 1.099]
- herbicidal action against weed plants, pre-emergence [1]: very good herbicidal action
- herbicidal action against weed plants, post-emergence [2]: very good herbicidal action

Structure (SMILES): CCC(C)Oc1cccc(I)c1S(=O)(=O)NC(=O)Nc1nc(C)nc(OC)n1 (stereo not shown) [Compound 1.557]
- herbicidal action against weed plants, pre-emergence [1]: very good herbicidal action
- herbicidal action against weed plants, post-emergence [2]: very good herbicidal action

Structure (SMILES): COc1nc(C)nc(NC(=O)NS(=O)(=O)c2c(I)cccc2OCC(F)(F)F)n1 [Compound 1.342]
- herbicidal action against weed plants, pre-emergence [1]: very good herbicidal action
- herbicidal action against weed plants, post-emergence [2]: very good herbicidal action

Structure (SMILES): COc1cc(OC)nc(NC(=O)NS(=O)(=O)c2c(I)cccc2OC(C)C(F)(F)F)n1 (stereo not shown) [Compound 1.362]
- herbicidal action against weed plants, pre-emergence [1]: very good herbicidal action
- herbicidal action against weed plants, post-emergence [2]: very good herbicidal action

Structure (SMILES): COc1cc(OC)nc(NC(=O)NS(=O)(=O)c2c(I)cccc2C(F)(F)F)n1 [Compound 1.091]
- herbicidal action against weed plants, pre-emergence [1]: very good herbicidal action
- herbicidal action against weed plants, post-emergence [2]: very good herbicidal action

Structure (SMILES): Cc1cc(C)nc(NC(=O)NS(=O)(=O)c2c(I)cccc2OCC(F)(F)F)n1 [Compound 1.343]
- herbicidal action against weed plants, pre-emergence [1]: very good herbicidal action
- herbicidal action against weed plants, post-emergence [2]: very good herbicidal action

Structure (SMILES): COc1nc(NC(=O)NS(=O)(=O)c2c(I)cccc2OS(=O)(=O)N(C)C)nc(OC)n1 [Compound 1.511]
- herbicidal action against weed plants, pre-emergence [1]: very good herbicidal action
- herbicidal action against weed plants, post-emergence [2]: very good herbicidal action

Structure (SMILES): COc1cc(OC)nc(NC(=O)NS(=O)(=O)c2c(I)cccc2OCC(C)C)n1 [Compound 1.197]
- herbicidal action against weed plants, pre-emergence [1]: very good herbicidal action
- herbicidal action against weed plants, post-emergence [2]: very good herbicidal action

Structure (SMILES): COc1cc(OC)nc(NC(=O)NS(=O)(=O)c2c(I)cccc2OC(F)(F)F)n1 [Compound 1.302]
- herbicidal action against weed plants, pre-emergence [1]: very good herbicidal action
- herbicidal action against weed plants, post-emergence [2]: very good herbicidal action

Structure (SMILES): COc1nc(C)nc(NC(=O)NS(=O)(=O)c2c(OC)ccc(Cl)c2I)n1 [Compound 1.599]
- herbicidal action against weed plants, pre-emergence [1]: very good herbicidal action
- herbicidal action against weed plants, post-emergence [2]: very good herbicidal action

Structure (SMILES): COc1nc(NC(=O)NS(=O)(=O)c2c(I)cccc2OC(F)(F)F)nc(OC)n1 [Compound 1.315]
- herbicidal action against weed plants, pre-emergence [1]: very good herbicidal action
- herbicidal action against weed plants, post-emergence [2]: very good herbicidal action

Structure (SMILES): COc1cc(Cl)nc(NC(=O)NS(=O)(=O)c2c(OC)ccc(Cl)c2I)n1 [Compound 1.601]
- herbicidal action against weed plants, pre-emergence [1]: very good herbicidal action
- herbicidal action against weed plants, post-emergence [2]: very good herbicidal action
